How the values were obtained:
NCI-H2171 = test: Antiproliferative activity against human NCI-H2171 cells after 72 hrs by ATPlite assay; format: functional, cell-based; conditions: NCI-H2171, 72 h
[1] = biological target: Myc proto-oncogene protein (Homo sapiens, UniProt P01106); test: Inhibition of human c-Myc assessed as reduction in c-Myc/Max/Ebox DNA complex formation using pre-formed complex of c-Myc and biotinylated DNA containing single Ebox-sequence followed by compound addition and further addition of his6-tagged c-Max and incubated for 2 hrs by AlphaScreen assay
Sequence of Myc proto-oncogene protein (P01106 whole entry): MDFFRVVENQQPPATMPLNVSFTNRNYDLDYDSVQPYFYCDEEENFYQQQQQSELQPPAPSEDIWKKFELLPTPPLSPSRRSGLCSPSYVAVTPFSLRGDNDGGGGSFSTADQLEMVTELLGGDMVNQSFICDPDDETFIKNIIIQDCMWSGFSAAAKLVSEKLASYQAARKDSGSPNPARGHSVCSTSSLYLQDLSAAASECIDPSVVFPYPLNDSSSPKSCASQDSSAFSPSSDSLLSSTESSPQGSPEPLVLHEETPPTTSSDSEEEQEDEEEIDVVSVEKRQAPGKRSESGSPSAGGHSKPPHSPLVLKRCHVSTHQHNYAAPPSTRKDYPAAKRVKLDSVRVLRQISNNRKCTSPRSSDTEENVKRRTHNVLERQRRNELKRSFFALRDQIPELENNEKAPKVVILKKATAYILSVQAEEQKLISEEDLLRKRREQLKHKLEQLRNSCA

SMILES: CCN1[C@H](C)Cc2c(sc(NC(C)=O)c2-c2nc3c(C(F)F)nccc3s2)[C@H]1C
- IC50 (NCI-H2171): < 500 nM

SMILES: CC[C@H](C)NCCC(=O)Nc1sc2c(c1-c1nc3cnccc3s1)C[C@H](C)NC2
- IC50 (NCI-H2171): < 500 nM

SMILES: O=C(CC[N+]12CCN(CC1)CC2)Nc1sc2c(c1-c1nc3cnccc3s1)CCNC2
- IC50 [1]: < 500 nM

SMILES: CC[C@H](C)NCCC(=O)Nc1sc2c(c1-c1nc3cnccc3s1)CN[C@H](C)C2
- IC50 (NCI-H2171): < 500 nM

Reference: ChEMBL document CHEMBL4476876, “Compounds for the modulation of myc activity” (2018)
